Experimental data reported in PMC5516028, “Molecular tools for GABAA receptors: High affinity ligands for β1-containing subtypes” (Scientific Reports, 2017).

How the values were obtained:
Type in all cases: cell-based
α1β3N41R GABAA receptors = target: T1, α1β3N41R GABAA receptors (Rattus norvegicus, UniProt P62813+P63079, N66R); assay: Two electrode voltage clamp in Xenopus laevis oocytes, mutant α1β3N41R; settings: co-applied with GABA EC3-5, read-out: EC50 values for the mutated receptors
T1 construct: expressed in transfected cells; host or cells: Xenopus laevis oocytes, mRNA injected
Text: (§1) cDNA’s of rat GABAA receptor subunits α1, α4, β1, β2, β3 and γ2S were cloned as described. cDNAs of the rat subunits α2, α3 and α5 were gifts from P. Malherbe, that of α6 and γ1 were gifts of P. Seeburg and that of δ was a gift of C. Czajkowski. The mutants were constructed using the Q5 Site-Directed Mutagenesis Kit (New England Biolabs) following manufacturer’s instruction. We used the wild-type rat β3-pCI vector as template and the primers […] and […] resulting in a substitution of amino acid N41 (AAC) to R (AGG). We used the wild-type rat β1-pCI vector as template and the primers […] and […] resulting in a substitution of amino acid R41 (CGG) to N (AAC). The mutated subunits were confirmed by sequencing.
(§2) In vitro transcription of mRNA was based on the cDNA expression vectors encoding for rat GABAA receptor subunits α1–6, β1-3, γ1,2, δ and the two β mutants (β1R41N and β3N41R)[40]. After linearizing the cDNA vectors with appropriate restriction endonucleases, the cDNA was purified and concentrated with the DNA Clean and Contentrator ^TM Kit (Zymoresearch, Catalog No. D4005). Capped transcripts of the purified cDNA were produced using the mMESSAGE mMACHINE® T7 transcription kit (Ambion, TX, USA) and polyadenylated using the Ambion PolyA tailing kit (Ambion). After transcription and polyadenylation the RNA was purified with the MEGAclear ^TM Kit (Ambion, Catalog No. AM1908). The final RNA concentration was measured on NanoDrop® ND-1000 and finally diluted and stored in diethylpyrocarbonate-treated water at −80 °C. For the microinjection, the RNA of αβ receptor combinations was mixed at 1:1 ratio (which leads to αβ receptors that consist of predominantly 3 beta and 2 alpha subunits[27]), for αkβlγm (k = 1–3, l = 1, 3, m = 1, 2) receptors at 1:1:5 ratio, for αkβ3γ2 (k = 4–6) and αkβlδ (k = 1, 4 and 6, l = 1, 3) receptor combinations at 3:1:5 ratio.
(§3) Mature female Xenopus laevis (Nasco, WI) were anesthetized in a bath of ice-cold 0.17% Tricain (Ethyl-m-aminobenzoate, Sigma, MO) before decapitation in full accordance with all rules of the Austrian animal protection law (see http://www.ris.bka.gv.at/Dokumente/BgblAuth/BGBLA_2012_I_114/BGBLA_2012_I_114.pdf) and the Austrian animal experiment by-laws (see https://www.ris.bka.gv.at/Dokumente/BgblAuth/BGBLA_2012_II_522/BGBLA_2012_II_522.pdf) which implement the European Directive 2010/63/EU (see http://eur-lex.europa.eu/LexUriServ/LexUriServ.do?uri=OJ:L:2010:276:0033:0079:en:PDF) into the Austrian law (all information accessed on July 27, 2016). The frog’s ovaries were transferred to ND96 medium (96 mM NaCl, 2 mM KCl, 1 mM MgCl2, 5 mM HEPES; pH 7.5). Stage 5–6 oocytes with the follicle cell layer around them were roughly dissected with forceps into packages of 10–15 cells and washed in Ca^2+-free ND96 medium. Cells were then digested with collagenase (type IA, Sigma, NO, 1 mg/mL ND96) at 18 °C shaking at 30 rpm for 30–60 minutes and gently defolliculated with the aid of a glass pipette with appropriate tip diameter and a platinum loop. Defolliculated cells were stored at 18 °C for at least 6 hours in ND96 solution containing penicillin G (10000 IU/100 mL) and streptomycin (10 mg/100 mL) in order to preselect and exclude damaged cells from further treatment. Healthy defolliculated oocytes were injected with an aqueous solution of mRNA. A total of 4.5 ng of mRNA per oocyte was injected with a Nanoject II (Drummond). After injection of mRNA, oocytes were incubated at 18 °C (ND96 + antibiotic) for 2–3 days for αβ receptors and for 3–4 days for αβγ or αβδ receptors before recording. When cells were measured at later time points, oocytes were stored at +4 °C instead of 18 °C.
(§4) For electrophysiological recordings, oocytes were placed on a nylon-grid in a bath of Ca^2+-containing NDE solution medium [96 mM NaCl, 5 mM HEPES-NaOH (pH 7.5), 2 mM KCl, 1 mM MgCl2, 1.8 mM CaCl2].

α1β2 GABAA receptors = target: T2, α1β2 GABAA receptors (Rattus norvegicus, UniProt P62813+P63138); assay: Two electrode voltage clamp in Xenopus laevis oocytes, α1β2; settings: read-out: efficacy, % of control current (GABA EC3-5 = 100%), α1β2
T2 construct: expressed in transfected cells; host or cells: Xenopus laevis oocytes, mRNA injected
Text: as §1, §2, §3, §4

α1β1 GABAA receptors = target: T3, α1β1 GABAA receptors (Rattus norvegicus, UniProt P15431+P62813); assay: Two electrode voltage clamp in Xenopus laevis oocytes, α1β1
T3 construct: expressed in transfected cells; host or cells: Xenopus laevis oocytes, mRNA injected
Text: as §1, §2, §3, §4

α1β3 GABAA receptors = target: T4, α1β3 GABAA receptors (Rattus norvegicus, UniProt P62813+P63079); assay: Two electrode voltage clamp in Xenopus laevis oocytes, α1β3; settings: read-out: efficacy, % of control current (GABA EC3-5 = 100%), α1β3
T4 construct: expressed in transfected cells; host or cells: Xenopus laevis oocytes, mRNA injected
Text: as §1, §2, §3, §4

α1β1R41N GABAA receptors = target: T5, α1β1R41N GABAA receptors (Rattus norvegicus, UniProt P15431+P62813, R66N); assay: Two electrode voltage clamp in Xenopus laevis oocytes, mutant α1β1R41N; settings: read-out: % of control current at EC3-5
T5 construct: expressed in transfected cells; host or cells: Xenopus laevis oocytes, mRNA injected
Text: as §1, §2, §3, §4

α1β1γ1 GABAA receptors = target: T6, α1β1γ1 GABAA receptors (Rattus norvegicus, UniProt P15431+P62813); assay: Two electrode voltage clamp in Xenopus laevis oocytes, α1β1γ1
T6 construct: expressed in transfected cells; host or cells: Xenopus laevis oocytes, mRNA injected
Text: as §1, §2, §3, §4

α1β1δ GABAA receptors = target: T7, α1β1δ GABAA receptors (Rattus norvegicus, UniProt P15431+P62813); assay: Two electrode voltage clamp in Xenopus laevis oocytes, α1β1δ
T7 construct: expressed in transfected cells; host or cells: Xenopus laevis oocytes, mRNA injected
Text: as §1, §2, §3, §4

T6 sequence (P62813 28-455): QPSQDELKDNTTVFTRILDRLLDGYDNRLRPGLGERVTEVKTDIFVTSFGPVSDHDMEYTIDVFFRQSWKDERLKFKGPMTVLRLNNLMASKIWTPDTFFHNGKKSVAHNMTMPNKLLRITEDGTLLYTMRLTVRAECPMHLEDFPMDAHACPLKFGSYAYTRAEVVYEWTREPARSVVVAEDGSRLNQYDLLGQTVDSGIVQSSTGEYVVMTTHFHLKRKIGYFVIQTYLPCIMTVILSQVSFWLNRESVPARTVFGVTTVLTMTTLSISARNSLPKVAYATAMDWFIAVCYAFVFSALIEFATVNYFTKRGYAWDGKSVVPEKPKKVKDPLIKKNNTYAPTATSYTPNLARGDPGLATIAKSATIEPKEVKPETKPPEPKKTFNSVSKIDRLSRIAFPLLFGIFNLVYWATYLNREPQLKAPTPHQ
T6 sequence (P15431 26-474): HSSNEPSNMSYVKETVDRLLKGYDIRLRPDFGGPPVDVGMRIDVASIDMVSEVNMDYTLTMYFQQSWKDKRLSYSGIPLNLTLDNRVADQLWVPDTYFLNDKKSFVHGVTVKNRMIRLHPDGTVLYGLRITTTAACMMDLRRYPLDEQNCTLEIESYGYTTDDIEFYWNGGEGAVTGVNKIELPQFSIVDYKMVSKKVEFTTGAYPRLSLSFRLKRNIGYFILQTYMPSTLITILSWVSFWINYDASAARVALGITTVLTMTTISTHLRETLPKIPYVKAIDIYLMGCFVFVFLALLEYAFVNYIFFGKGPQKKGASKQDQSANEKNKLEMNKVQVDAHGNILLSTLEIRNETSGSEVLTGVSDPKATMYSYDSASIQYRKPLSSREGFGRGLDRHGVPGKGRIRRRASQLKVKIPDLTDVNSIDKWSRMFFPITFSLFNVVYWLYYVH
T6 sequence (P23574 36-465 partner limits assumed): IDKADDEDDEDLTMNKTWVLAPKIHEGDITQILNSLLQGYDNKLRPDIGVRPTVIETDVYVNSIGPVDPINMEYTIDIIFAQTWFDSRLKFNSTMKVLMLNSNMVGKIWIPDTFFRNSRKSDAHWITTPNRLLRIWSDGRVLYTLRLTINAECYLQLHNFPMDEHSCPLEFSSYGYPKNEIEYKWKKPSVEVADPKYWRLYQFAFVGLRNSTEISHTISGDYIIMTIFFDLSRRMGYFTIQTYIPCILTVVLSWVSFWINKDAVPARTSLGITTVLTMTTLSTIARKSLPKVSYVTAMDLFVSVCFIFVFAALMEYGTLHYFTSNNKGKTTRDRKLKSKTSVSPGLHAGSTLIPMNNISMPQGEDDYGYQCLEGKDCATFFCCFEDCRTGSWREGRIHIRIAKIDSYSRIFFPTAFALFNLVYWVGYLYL
T4 sequence (P62813 28-455): as the sequence (P62813 28-455) above
T4 sequence (P63079 26-473): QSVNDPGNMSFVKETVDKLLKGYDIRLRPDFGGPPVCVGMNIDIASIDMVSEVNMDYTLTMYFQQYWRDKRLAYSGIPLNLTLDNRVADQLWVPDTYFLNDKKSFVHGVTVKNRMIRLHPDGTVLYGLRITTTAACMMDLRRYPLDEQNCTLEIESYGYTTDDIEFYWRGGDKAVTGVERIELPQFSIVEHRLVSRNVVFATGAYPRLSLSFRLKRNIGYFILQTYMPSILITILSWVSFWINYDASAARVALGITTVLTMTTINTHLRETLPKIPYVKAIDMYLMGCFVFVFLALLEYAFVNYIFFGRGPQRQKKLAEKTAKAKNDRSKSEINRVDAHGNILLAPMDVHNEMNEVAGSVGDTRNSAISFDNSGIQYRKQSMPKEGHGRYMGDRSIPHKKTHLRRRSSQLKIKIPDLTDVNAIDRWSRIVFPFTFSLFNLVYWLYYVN
T2 sequence (P62813 28-455): as the sequence (P62813 28-455) above
T2 sequence (P63138 25-474 limits assumed): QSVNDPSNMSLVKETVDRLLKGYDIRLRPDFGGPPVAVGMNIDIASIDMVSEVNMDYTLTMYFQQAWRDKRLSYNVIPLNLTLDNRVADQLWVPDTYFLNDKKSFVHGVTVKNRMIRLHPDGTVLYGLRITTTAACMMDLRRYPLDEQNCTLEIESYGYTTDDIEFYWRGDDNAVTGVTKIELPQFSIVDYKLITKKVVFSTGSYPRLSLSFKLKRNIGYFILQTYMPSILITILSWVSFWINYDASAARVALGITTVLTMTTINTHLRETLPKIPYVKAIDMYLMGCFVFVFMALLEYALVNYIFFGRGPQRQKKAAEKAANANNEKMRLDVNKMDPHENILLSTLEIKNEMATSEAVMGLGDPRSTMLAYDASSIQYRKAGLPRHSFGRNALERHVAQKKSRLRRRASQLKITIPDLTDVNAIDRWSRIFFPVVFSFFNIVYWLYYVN
T5 sequence (P62813 28-455): as the sequence (P62813 28-455) above
T5 sequence (P15431 26-474 R66N): as the sequence (P15431 26-474) above, with R41N counted along it
T7 sequence (P62813 28-455): as the sequence (P62813 28-455) above
T7 sequence (P15431 26-474): as the sequence (P15431 26-474) above
T7 sequence (P18506 17-449 partner limits assumed): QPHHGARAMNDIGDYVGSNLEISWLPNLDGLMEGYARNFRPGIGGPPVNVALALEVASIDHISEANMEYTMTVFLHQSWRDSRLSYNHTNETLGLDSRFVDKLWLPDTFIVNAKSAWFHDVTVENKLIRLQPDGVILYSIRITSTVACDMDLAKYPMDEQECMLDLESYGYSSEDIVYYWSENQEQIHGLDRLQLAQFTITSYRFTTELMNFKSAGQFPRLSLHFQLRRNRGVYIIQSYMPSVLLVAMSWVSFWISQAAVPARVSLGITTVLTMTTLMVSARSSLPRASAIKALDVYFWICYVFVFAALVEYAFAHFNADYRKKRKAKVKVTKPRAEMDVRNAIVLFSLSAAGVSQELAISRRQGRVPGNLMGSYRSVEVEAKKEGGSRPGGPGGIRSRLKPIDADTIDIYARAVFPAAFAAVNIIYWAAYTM
T3 sequence (P62813 28-455): as the sequence (P62813 28-455) above
T3 sequence (P15431 26-474): as the sequence (P15431 26-474) above
T1 sequence (P62813 28-455): as the sequence (P62813 28-455) above
T1 sequence (P63079 26-473 N66R): as the sequence (P63079 26-473) above, with N41R counted along it

COc1ccc2[nH]cc3c(=O)n(-c4ccc(N)cc4)nc-3c2c1 [Compound 6, 2-(4-Aminophenyl)-8-methoxy-2,5-dihydro-3H-pyrazolo[4,3-c]quinolin-3-one]
EC50 (α1β3N41R GABAA receptors): 1870 nM | activity at 0.03 µM (α1β2 GABAA receptors; 30 nM): 98 ± 3% | activity at 0.1 µM (α1β2 GABAA receptors; 100 nM): 99.5 ± 5.5% | activity at 1 µM (α1β2 GABAA receptors; 1 µM): 97.5 ± 9.5% | activity at 10 µM (α1β2 GABAA receptors; 10 µM): 118 ± 9% | activity at 30 µM (α1β2 GABAA receptors; 30 µM): 105 ± 8.3% | activity at 0.03 µM (α1β1 GABAA receptors; read-out: efficacy, % of control current (GABA EC3-5 = 100%), α1β1, 30 nM): 100% | activity at 0.3 µM (α1β1 GABAA receptors; read-out: efficacy, % of control current (GABA EC3-5 = 100%), α1β1, 300 nM): 153 ± 9.5% | Hill slope (nH) (α1β1 GABAA receptors; α1β1): 1.3±0.2 | EC50 (α1β1 GABAA receptors; α1β1, co-applied with GABA EC3-5, read-out: EC50): 650 nM | activity at 0.003 µM (α1β3 GABAA receptors; 3 nM): 100 ± 1.9% | activity at 0.1 µM (α1β3 GABAA receptors; 100 nM): 95 ± 5% | activity at 1 µM (α1β3 GABAA receptors; 1 µM): 97.5 ± 0.5% | current as % of control at 0.1 µM (α1β1R41N GABAA receptors; 100nM): 75 ± 1% | current as % of control at 0.3 µM (α1β1R41N GABAA receptors; 300nM): 90 ± 10% | current as % of control at 1 µM (α1β1R41N GABAA receptors; 1μM): 90 ± 15% | current as % of control at 3 µM (α1β1R41N GABAA receptors; 3µM): 90 ± 20% | current as % of control at 10 µM (α1β1R41N GABAA receptors; 10μM): 70 ± 10% | current as % of control at 30 µM (α1β1R41N GABAA receptors; 30μM): 115 ± 1%

COc1ccc(-n2nc3c4cc(Cl)cc(C(C)(C)C)c4[nH]cc-3c2=O)cc1 [Compound 7, 6-(tert-Butyl)-8-chloro-2-(4-methoxyphenyl)-2,5-dihydro-3H-pyrazolo[4,3-c]quinolin-3-one]
EC50 (α1β1γ1 GABAA receptors): 21000 nM | activity at 0.003 µM (α1β1γ1 GABAA receptors; read-out: efficacy, % of control current (GABA EC3-5 = 100%), α1β1γ1, 3 nM): 105.1 ± 0.7% | activity at 0.01 µM (α1β1γ1 GABAA receptors; read-out: efficacy, % of control current (GABA EC3-5 = 100%), α1β1γ1, 10 nM): 106 ± 1.9% | activity at 0.03 µM (α1β1γ1 GABAA receptors; read-out: efficacy, % of control current (GABA EC3-5 = 100%), α1β1γ1, 30 nM): 108 ± 1.4% | activity at 0.1 µM (α1β1γ1 GABAA receptors; read-out: efficacy, % of control current (GABA EC3-5 = 100%), α1β1γ1, 100 nM): 112 ± 0.9% | activity at 1 µM (α1β1γ1 GABAA receptors; read-out: efficacy, % of control current (GABA EC3-5 = 100%), α1β1γ1, 1 µM): 121 ± 3.2% | activity at 3 µM (α1β1γ1 GABAA receptors; read-out: efficacy, % of control current (GABA EC3-5 = 100%), α1β1γ1, 3 µM): 159 ± 3.2% | activity at 10 µM (α1β1γ1 GABAA receptors; read-out: efficacy, % of control current (GABA EC3-5 = 100%), α1β1γ1, 10 µM): 175 ± 13.6% | Hill slope (nH) (α1β1γ1 GABAA receptors; α1β1γ1): 0.6±0.2 | EC50 (α1β1δ GABAA receptors; read-out: EC50): 2300 nM | activity at 0.003 µM (α1β1δ GABAA receptors; read-out: efficacy, % of control current (GABA EC3-5 = 100%), α1β1δ, 3 nM): 100 ± 0.7% | activity at 0.01 µM (α1β1δ GABAA receptors; read-out: efficacy, % of control current (GABA EC3-5 = 100%), α1β1δ, 10 nM): 106 ± 2.8% | activity at 0.03 µM (α1β1δ GABAA receptors; read-out: efficacy, % of control current (GABA EC3-5 = 100%), α1β1δ, 30 nM): 108 ± 5.2% | activity at 0.1 µM (α1β1δ GABAA receptors; read-out: efficacy, % of control current (GABA EC3-5 = 100%), α1β1δ, 100 nM): 128 ± 3.4% | activity at 0.3 µM (α1β1δ GABAA receptors; read-out: efficacy, % of control current (GABA EC3-5 = 100%), α1β1δ, 300 nM): 163 ± 6.2% | activity at 1 µM (α1β1δ GABAA receptors; read-out: efficacy, % of control current (GABA EC3-5 = 100%), α1β1δ, 1 µM): 381 ± 48.7% | activity at 3 µM (α1β1δ GABAA receptors; read-out: efficacy, % of control current (GABA EC3-5 = 100%), α1β1δ, 3 µM): 636 ± 116% | activity at 10 µM (α1β1δ GABAA receptors; read-out: efficacy, % of control current (GABA EC3-5 = 100%), α1β1δ, 10 µM): 885 ± 293% | Hill slope (nH) (α1β1δ GABAA receptors; α1β1δ): 1.1±0.8 | shift of modulatory dose-response relative to parent compound 1 (α1β1 GABAA receptors; α1β1, α1β1γ1 and α1β1δ receptors (Fig. 6), versus compound 1): approximately twenty-fold right shift
